In patent US20210052358A1, “TEETH WHITENING PRODUCT CONTAINING PIEZOELECTRIC MATERIAL” (Nanjing University of Science & Technology, priority 2019, published 2021):
Read-outs that look alike come from different tables or passages of the source.

How the values were obtained:
[1] = test system: rat thoracic aortic smooth muscle cells; format: cell-based; settings: added to culture medium; final concentration: barium titanate 1 mg/mL, H2O2 15% (FIG. 6)
Method: A biological toxicity testing was conducted on barium titanate powders using rat thoracic aortic smooth muscle cells. Different additives were charged into cell culture media. After culture for a period of time, biological statistics was conducted. FIG. 6(a) illustrates a cell count in a standard medium as a function of cell culture time; FIGS. 6(b) and 6(c) illustrate results after addition of barium titanate powders (final concentration: 1 mg/mL) and 30% H2O2 (final concentration: 15%) in a culture medium, respectively; FIG. 6(d) illustrates mathematical statistics of results of every day.

[2] = after whitening for the same time period, SEM (FIG. 7)

OO [H2O2, hydrogen peroxide]
effect on cell growth and proliferation (cell count versus culture time) [1]: almost all cells in the medium die | damage to the tooth surface / enamel [2]: damages the tooth surface seriously | damage to the tooth surface / enamel ([2]; listed as 30% H2O2): causes non-ignorable damage to the enamel on the tooth surface
